According to US20200000772A1, “CENICRIVIROC COMBINATION THERAPY FOR THE TREATMENT OF FIBROSIS” (Tobira Therapeutics, Inc., priority 2014, published 2020):

Key:
[1] = tested on: STAM™ mouse model of Non-alcoholic Steatohepatitis; test: STAM mouse model of NASH, Part 2: anti-HCC effects at week 18; settings: for Body weight / Liver-to-body weight ratio: mean ± SD; for mice that died (survival analysis): 6 to 18 weeks
Experimental: Group 1-Vehicle: Eighteen NASH mice were orally administered vehicle at a volume of 10 mL/kg twice daily (9:00 and 19:00) from 6 weeks of age.

[2] = tested on: thioacetamide (TAA)-induced hepatic fibrosis; test: Rat model of thioacetamide-induced liver fibrosis and cirrhosis; assay type: in vivo, Sprague-Dawley rats; settings: first 8 weeks
Experimental: Fibrosis was induced in male Sprague-Dawley rats by intraperitoneal administration of TAA 150 mg/kg 3 times/week for 8 weeks. […] Biochemical, gene expression and histologic evaluations of the liver were conducted.

[3] = tested on: renal fibrosis induced by unilateral ureter occlusion (UUO); test: Mouse UUO model of renal fibrosis; assay type: in vivo, CD-1 mice
Experimental: Test animals were allocated to weight-matched treatment groups on the day prior to the surgical procedure (Day −1). Male CD-1 mice (N=51; age, 7-8 weeks) underwent either sham surgery or total ligation of the right ureter, i.e. UUO, via aseptic laparotomy (FIG. 5). […] Another group received the anti-transforming growth factor TGF-β1 antibody, compound 1D11 (positive control) at 3 mg/kg/day from Days −1 to 4, injected intraperitoneally once daily, and vehicle control from Days 0 to 5. […] On Day 5, animals were anaesthetised, blood and tissues were collected prior to sacrifice.
Study endpoints included: a) body and kidney weights; b) fibrosis in obstructed kidney evaluated via histological quantitative image analysis of picrosirius red staining (ten images/depth/kidney obtained and assessed in a blinded fashion using light microscopy [at 200×] to enable sampling of 60-70% of the renal cortical area) and quantified by a composite Collagen Volume Fraction (CVF [% total area imaged]) score expressed as the average positive stain across three anatomically distinct ([…] apart) tissue sections, or depths, from the obstructed kidney; c) hydroxyproline content of frozen renal cortical tissue biopsies as assessed by biochemical analyses; d) mRNA expression of profibrotic and inflammatory biomarkers (including MCP-1, Collagen 1a1, Collagen 3a1, TGF-β1, Fibronectin-1, α-smooth muscle actin (α-SMA) and connective tissue growth factor-1 (CTGF-1); assessed via Luminex® (Life Technologies™, Carlsbad, Calif., USA) assay with relative expression normalised to HPRT (hypoxanthine phosphoribosyltransferase).
Data are expressed as mean±standard error of mean (SEM). Statistical analyses were performed using GraphPad Prism® (GraphPad Software, Inc., San Diego, Calif., USA). Treatment differences between sham-surgery+vehiclecontrol and UUO+vehicle-control groups, and between UUO+vehicle-control and UUO+compound-1D1 (positive control) groups, were analysed by unpaired t-Test. Treatment differences between UUO+vehicle-control and CVC-dose groups were analysed by one-way ANOVA (analysis of variance) with Dunnett's test (post-hoc).

[4] = Mouse toxicity studies without surgical procedures; assay type: in vivo; settings: CVC doses up to 2000 mg/kg/day
[5] = Chronic (3- and 9-month) monkey toxicity studies; assay type: in vivo
CCR2 = CCR2 (Homo sapiens, UniProt P41597); test: CCR2 antagonism in in vitro, ex vivo and clinical studies; settings: ex vivo, Studies 652-2-201 and 652-2-202
Source text: Clinical evidence of CCR2 and CCR5 antagonism was established by measuring changes from baseline in plasma MCP-1 (a ligand of CCR2) concentrations and changes in plasma HIV-RNA (CCR5 co-receptor required for HIV entry), respectively, in these 2 Phase 2 Studies.

CCR5 = CCR5 (Homo sapiens, UniProt P51681); test: CCR5 antagonism in in vitro, ex vivo and clinical studies; settings: ex vivo, Studies 652-2-201 and 652-2-202
[6] = Tissue distribution in rodents; assay type: in vivo
Source text: Infiltration of various immune cell populations, resulting in inflammation, is a central pathogenic feature following acute- and chronic liver injury. Chronic liver inflammation leads to continuous hepatocyte injury which can lead to fibrosis, cirrhosis, ESLD, and HCC. Interactions between intra-hepatic immune cells lead to increased activation and migration of Kupffer cells and HSCs and are critical events for developing liver fibrosis. Additionally, there is increasing evidence of the role of CCR2 and CCR5 in the pathogenesis of liver fibrosis. These members of the C-C chemokine family are expressed by pro-fibrogenic cells including pro-inflammatory monocytes and macrophages, Kupffer cells, and HSCs. CCR2 signaling plays an important role in the pathogenesis of renal fibrosis through regulation of bone marrow-derived fibroblasts. CCR2- and CCR5-positive monocytes as well as CCR5-positive T lymphocytes are attracted by locally released MCP-1 and RANTES, and can contribute to chronic interstitial inflammation in the kidney. […] Disruption of the intestinal microbiota and its downstream effects on the gut-liver axis both play an important role in metabolic disorders such as obesity, non-alcoholic fatty liver disease (NAFLD) and non-alcoholic steatohepatitis (NASH).

[7] = CVC plasma exposures, healthy volunteers vs HIV-infected subjects; assay type: in vivo, human; settings: same dosing conditions; Studies 652-1-111, 652-1-110, 652-2-202
[8] = CVC-high 100 mg/kg/day, week 18
[9] = CVC-high 100 mg/kg/day, week 18, listed as Cenicriviroc
[10] = CVC-low 20 mg/kg/day, week 18, listed as Cenicriviroc
[11] = CVC 7 and 20 mg/kg/day, compound 1D11, vs UUO+vehicle-control

Chain of CCR2 (P41597 whole entry): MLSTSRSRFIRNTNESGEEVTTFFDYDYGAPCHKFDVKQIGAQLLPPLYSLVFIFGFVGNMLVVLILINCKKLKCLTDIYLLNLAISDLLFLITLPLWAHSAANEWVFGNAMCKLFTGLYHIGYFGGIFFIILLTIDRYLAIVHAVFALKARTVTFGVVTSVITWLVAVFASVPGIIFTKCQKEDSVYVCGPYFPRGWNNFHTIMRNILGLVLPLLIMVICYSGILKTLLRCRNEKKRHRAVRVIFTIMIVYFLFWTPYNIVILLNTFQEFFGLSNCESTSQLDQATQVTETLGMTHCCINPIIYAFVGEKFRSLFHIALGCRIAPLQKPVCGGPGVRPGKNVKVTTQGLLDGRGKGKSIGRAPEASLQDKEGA
Chain of CCR5 (P51681 whole entry): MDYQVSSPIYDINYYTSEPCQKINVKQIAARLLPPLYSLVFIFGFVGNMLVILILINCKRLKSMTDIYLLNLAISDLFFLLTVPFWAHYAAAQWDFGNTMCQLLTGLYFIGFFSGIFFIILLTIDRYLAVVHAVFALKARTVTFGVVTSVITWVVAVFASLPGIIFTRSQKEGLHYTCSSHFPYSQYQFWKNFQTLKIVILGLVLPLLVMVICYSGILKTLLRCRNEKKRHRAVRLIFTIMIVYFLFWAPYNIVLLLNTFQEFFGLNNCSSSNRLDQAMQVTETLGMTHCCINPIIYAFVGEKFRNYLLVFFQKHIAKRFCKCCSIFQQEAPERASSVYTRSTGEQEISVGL

With CCCCOCCOc1ccc(-c2ccc3c(c2)/C=C(/C(=O)Nc2ccc([S@@+]([O-])Cc4cncn4CCC)cc2)CCCN3CC(C)C)cc1 [CVC, (S)-8-[4-(2-Butoxyethoxy)phenyl]-1-isobutyl-N-(4-{[(1-propyl-1H-imidazol-5-yl)methyl]sulfinyl}phenyl)-1,2,3,4-tetrahydro-1-benzazocine-5-carboxamide] the “effect on NASH-derived HCC” value ([1]; CVC treatment groups, week 18) was “not observed”, the Body weight [1, 8] was 20.8 ± 2.7 g and the Liver-to-body weight ratio [1, 8] was 8.8±2.3%. For the same molecule, the Body weight [1, 9] was 20.8 ± 2.7 g, the Liver-to-body weight ratio [1, 9] was 8.8 ± 2.3% and the “mice that died (survival analysis)” value ([1]; CVC-high group) was “Five out of twelve mice died”. The “mice with GS-positive nodules” value ([1]; CVC-high group, week 18) was “seven out of seven mice”, the “mice with HCC lesions (HE staining)” value ([1]; CVC-high group, week 18) was “six out of seven mice” and the Body weight ([1]; CVC-low 20 mg/kg/day, week 18) was 22.9 ± 3.5 g. For the same molecule, the Liver-to-body weight ratio ([1]; CVC-low 20 mg/kg/day, week 18) was 8.3±2.8%, the Body weight [1, 10] was 22.9 ± 3.5 g and the Liver-to-body weight ratio [1, 10] was 8.3 ± 2.8%. For the same molecule, the “mice that died (survival analysis)” value ([1]; CVC-low group) was “Six out of twelve mice died”, the “mice with GS-positive nodules” value ([1]; CVC-low group, week 18) was “five out of six mice” and the “mice with HCC lesions (HE staining)” value ([1]; CVC-low group, week 18) was “five out of six mice”. For the same molecule, the “reduction of fibrosis by collagen morphometry” value ([2]; Group 1a: CVC 30 mg/kg/day concurrently with TAA) was 49%, the “reduction of fibrosis by collagen morphometry” value ([2]; Group 1b: CVC 100 mg/kg/day concurrently with TAA) was 38% and the “effect on body weight” value ([3]; CVC 7 mg/kg/day oral, compound 1D11 3 mg/kg/day i.p., Day 5) was “no effect”. For the same molecule, the “decrease in body weight relative to UUO+vehicle-control” value ([3]; CVC 20 mg/kg/day, Day 5) was 5%, the “tolerability after UUO surgery” value ([3]; CVC 100 mg/kg/day group (N=9)) was “terminated early due to moribundity” and the “effect on UUO-induced increases in obstructed kidney hydroxyproline content” value ([3]; CVC 7 and 20 mg/kg/day) was “Neither dose of CVC tested affected”. For the same molecule, the “effects on obstructed or contralateral kidney weight or kidney weight index” value ([3]; CVC 7 and 20 mg/kg/day, compound 1D11 3 mg/kg/day, vs UUO+vehicle-control) was “No significant treatment effects”, the “Collagen 1a1, Collagen 3a1, TGF-β1 and Fibronectin-1 mRNA expression in obstructed kidney” value [3, 11] was “attenuated UUO-induced increases” and the “obstructed kidney cortical MCP-1, α-SMA and CTGF-1 mRNA expression” value [3, 11] was “did not have significant effects”. For the same molecule, the tolerability [4] was “well tolerated”, the “plasma MCP-1 levels, fold over controls” value ([5]; 1000 mg/kg/day, chronic (3- and 9-month) monkey toxicity studies) was about 5 fold and the “indication of inflammation in clinical pathology parameters or any tissue incl. liver” value ([5]; high dose of 1000 mg/kg/day) was “No indication of inflammation”. For the same molecule, the “antagonism of CCR2” value (CCR2) was “potent and concentration-dependent antagonism”, the “antagonism of CCR5” value (CCR5) was “potent and concentration-dependent antagonism” and the tissue distribution [6] was “high distribution in the liver, mesenteric lymph node, and intestine”. The “CVC plasma exposures in non-HIV infected healthy volunteers compared to HIV-infected subjects” value [7] was “higher”.
